Results: US8383608B2, “Imidazolidine compounds as androgen receptor modulators” (Dart Therapeutics LLC, priority 2008, dated 2013)
Like-named read-outs stand apart in the source and are kept apart here.

Key:
[1] = tested on: castrated immature young rats; test: Adapted model of Hershberger's test; assay type: in vivo, Sprague Dawley rats; details: Rattus norvegicus, po, 96 h, ORX control = 0%, SHAM control = 100%, per os daily for 4 days, dose tested 10 mg/kg
Protocol: The selective modulating activity of the androgen receptor is tested in a model of castrated immature young rats. This model, which is widely recognised for evaluating the anabolic effects of androgen compounds on the muscles and on the prostate, has been described by Hershberger et al. 1953 Proc. Soc. Expt. Biol. Med. 83:175.
The method is based on the measurement of the well-known effects of androgens on the growth of the muscles and the accessory male sex organs in animals, and also in men. The consequences of castration appear in the form of a rapid involution and atrophy of the prostate and the seminal vesicles and of the anus-lifting muscle (levator ani). This effect may be completely compensated by an exogeneous administration of androgen, in particular of testosterone. The model is thus used to determine the capacity of the tested molecules to maintain the weight of the accessory sex and muscle organs in immature castrated rats, and therefore their androgenic efficacy.
Immature young Sprague Dawley rats (4 to 5 weeks old) weighing approximately 140-160 g (Charles River, Les Oncins, FRANCE) are distributed randomly in various groups and are kept in an environment at 22±2° C. with an alternating day/night cycle of 12 hours and ad libitum access to food and drink.
On day 0 (seven days before commencement of the first treatment) the rats are weighed individually then anaesthetised with an intraperitoneal dose of Ketamine/xylazine (85/15 mg/kg, approximately 2 ml/kg). Each animal is then placed on a sterile field and the abdomen and the scrotum are disinfected with Betadine and 70% alcohol. In the case of the orchidectomised control animals (ORX), the testicles are removed via an incision in the middle of the scrotum. A sterile suture is then made to ligature the supra-testicular portion of the tissue prior to surgical section of each testicle. The groups of animals to be treated by the tested compounds are operated on in an identical manner. In the case of the intact control animals (SHAM), the testicles are similarly extracted and reintroduced delicately to their original location. The site of surgical intervention is then sutured using sterile suture thread, and the site is disinfected again by application of Betadine. Each animal is then kept under a sterile pad until it awoke, before being returned to its cage. The animals are kept in an environment at 22±2° C. with an alternating day/night cycle of 12 hours and ad libitum access to food and drink. The animals are treated with the molecules to be tested from post-surgery day 7 and until day 10 preceding sacrifice (day 11).
The rats are split into groups and treated daily from day 7 to day 10 under the conditions defined below: • 1. SHAM control group: Vehicle (PEG400/DMSO/water; 79/1/20) administered per os. • 2. ORX control group: Vehicle (PEG400/DMSO/water; 79/1/20) administered per os. • 3. Treated ORX group: The tested compounds are administered individually per os in suspension in the vehicle described above, in a dose of 10 mg/kg.
After treatment for 4 successive days, the animals are decapitated using a guillotine. The levator ani and the ventral prostate are removed and weighed individually. For comparing inter-experimental data, the weight of each organ is standardised and expressed in milligrammes per 100 g of the weight of the animal (W). For each organ, the average of the standardised weights of the ORX control group is fixed by definition at 0% and the average of the standardised weights of the SHAM control group is fixed by definition at 100%. The efficacy of each product is expressed as a percentage and calculated using the following formula: (Wtreated−WORX)/(WSHAM−WORX)×100
A subsequent ANOVA test is used for statistical analysis to identify the differences between groups.

[2] = Determination of absolute bioavailability (restricted PK profile, oral and intravenous); assay type: in vivo; details: male, Sprague-Dawley, rat, plasma, po, 10 mg/kg, absolute bioavailability (F), male Sprague Dawley rats, oral 10 mg/kg AUC(0-6 h) vs intravenous 3 mg/kg AUC(0-3 h); read-out: Bioavailability
Protocol: To screen rapidly imidazolidines derivatives based on their absolute bioavailabity, restricted pharmacokinetic profile with only fours sampling time points after oral and intravenous route is investigated in Sprague Dawley rats as follows: each test compound is dosed orally (10 mg/kg) and intravenously (3 mg/kg) to groups of 3 male Sprague Dawley rats. Oral doses are administered as solution in EtOH/PEG400/H2O (1/79/20; v/v) by esophageal gavage (2 mg/mL; 5 mL/kg) and intravenous dose is given as solution in DMSO/PEG400/H2O (1/65/34; v/v) as a bolus in the tail vein (3 mg/mL; 1 mL/kg). Before oral dosing, animals are deprived of food (water ad libitum) for at least 16 hours before the start of the study and 6 hours after administration.
Blood is collected at the retro-orbital sinus into polypropylene tubes (Li-heparinate) at +4° C. at the following sampling-times: 0.083, 0.25, 1 and 3 h after intravenous injection and 0.25, 1, 3 and 6 hours after oral dosing. Three (3) animals are sampled per time-point; each animal being sampled four times. After centrifugation at 5000 rpm for 10 min at +4° C., plasma is collected into polypropylene tubes and kept frozen at −20° C. pending assays. Plasma samples are assayed by a LC-MS/MS method with a lower limit of quantification of 1 to 10 ng/mL depending on the compound (volume of plasma: 100 μL).
A LC-MS/MS method for quantification in heparinized plasma was developed for each test compound. Sample preparation consists of a precipitation of plasma proteins with methanol and filtration by centrifugation of supernatant on Captiva deep-well 96 0.2 μm filter plates. Water was added to methanol supernatant phase prior to analysis by liquid chromatography (Pursuit 5 C18 20×2.0 mm VARIAN, 2 μL loop, gradient Water/Methanol (90/10 to 0/100) over 1.7 min) with turboionspray tandem mass spectrometry (API4000) in negative mode using multiple reaction monitoring. The method includes 8 standard and 3 quality control levels with lower limit of quantification corresponding to first standard level.
Exposures are determined using a non compartmental model (WinNonLin 2.1) and the absolute bioavailability (F) is calculated as follows: [AUC(0-6 h) oral*3 mg/kg]/AUC(0-3 h) IV 10 mg/kg] and expressed in percentage.

[3] = levator ani weight, read-out: Anabolic activity %
[4] = ventral prostate weight, read-out: Androgenic activity % (Prostate)

SMILES | response vs control in vivo at 10 mg/kg [1, 3] [%] | response vs control in vivo at 10 mg/kg [1, 4] [%] | bioavailability [2] [%]
CN1C(=O)N(c2ccc(C#N)c(C(F)(F)F)c2)C(=O)[C@@]1(CO)c1ccccc1 [Example 10, (S)-4-[2,5-Dioxo-4-(hydroxymethyl)-3-methyl-4-phenylimidazolidin-1-yl]-2-trifluoromethylbenzonitrile] | 75 to 100 | 0.5 to 25 | > 90
CCN1C(=O)N(c2ccc(C#N)c(C(F)(F)F)c2)C(=O)C1(CO)c1ccccc1 (stereo not drawn) [Example 12, 4-[2,5-Dioxo-3-ethyl-4-(hydroxymethyl)-4-phenylimidazolidin-1-yl]-2-trifluoromethylbenzonitrile] | 75 to 100 | 50 to 75 | 50 to 90
CN1C(=O)N(c2ccc(C#N)c(C(F)(F)F)c2)C(=O)C1(CO)c1ccc(Cl)cc1 (stereo not drawn) [Example 7, 4-[4-(4-Chlorophenyl)-2,5-dioxo-4-hydroxymethyl-3-methyl-imidazolidin-1-yl)-2-trifluoromethylbenzonitrile] | 25 to 50 | 0 | > 90
